Reference: patent US6737383B1, “Herbicidal oxadiazolidines” (priority 1999, dated 2004)

Columns and labels:
surinam grass = assay: Test B pre/postemergence surinam grass; type: in vivo, Brachiaria decumbens
Source text: (§1) Seeds of bedstraw (Galium aparine), blackgrass (Alopecurus myosuroides), surinam grass (Brachiaria decumbens), cocklebur (Xanthium strumarium), corn (Zea mays), crabgrass (Digitaria sanguinalis), giant foxtail (Setaria faberii), morningglory (Ipomoea hederacea), pigweed (Amaranthus retroflexus), rape (Brassica napus), soybean (Glycine max), sugar beet (Beta vulgaris), velvetleaf (Abutilon theophrasti), wheat (Triticum aestivum), wild oat (Avena fatua) and purple nutsedge (Cyperus rotundus) tubers were planted and treated preemnergence with test chemicals formulated in a non-phytotoxic solvent mixture which included a surfactant.
(§2) At the same time, these crop and weed species were also treated with postemergence applications of test chemicals formulated in the same manner. Plants ranged in height from 2 to 18 cm (1- to 4-leaf stage) for postemergence treatments. Plant species in the flood test consisted of rice (Oryza sativa), smallflower flatsedge (Cyperus difformis), duck salad (Heteranthera limosa) and bamyardgrass (Echinochloa crus-galli) grown to the 2-leaf stage for testing. Treated plants and controls were maintained in a greenhouse for twelve to sixteen days, after which all species were compared to controls and visually evaluated. Plant response ratings, summarized in Table B, are based on a scale of 0 to 10 where 0 is no effect and 10 is complete control. A dash (−) response means no test result.

blackgrass = assay: Test B pre/postemergence blackgrass; type: in vivo, Alopecurus myosuroides
Source text: as §1, §2

morningglory = assay: Test B pre/postemergence morningglory; type: in vivo, Ipomoea hederacea
Source text: as §1, §2

rape = assay: Test B pre/postemergence rape; type: in vivo, Brassica napus
Source text: as §1, §2

giant foxtail = assay: Test B pre/postemergence giant foxtail; type: in vivo, Setaria faberii
Source text: as §1, §2

bedstraw = assay: Test B pre/postemergence bedstraw; type: in vivo, Galium aparine; conditions: Preemergence; for Plant response rating, Bedstraw: Rate 62 g/ha, scale of 0 to 10 where 0 is no effect and 10 is complete control; for Bedstraw plant response rating: scale 0 to 10, 0 is no effect, 10 is complete control
In short: (§3)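 Herbicidal effect was estimated by eye on a ten-point control scale after plants spent twelve to sixteen days in a greenhouse following soil or foliar treatment. Foliar sprays targeted plants at one to four leaves; all doses were formulated in a non-phytotoxic solvent with surfactant.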

soybean = assay: Test B pre/postemergence soybean; type: in vivo, Glycine max
Source text: as §1, §2

velvetleaf = assay: Test B pre/postemergence velvetleaf; type: in vivo, Abutilon theophrasti
Source text: as §1, §2

corn = assay: Test B pre/postemergence corn; type: in vivo, Zea mays
Source text: as §1, §2

pigweed = assay: Test B pre/postemergence pigweed; type: in vivo, Amaranthus retroflexus
Source text: as §1, §2

cocklebur = assay: Test B pre/postemergence cocklebur; type: in vivo, Xanthium strumarium
Source text: as §1, §2

wild oat = assay: Test B pre/postemergence wild oat; type: in vivo, Avena fatua
Source text: as §1, §2

sugar beet = assay: Test B pre/postemergence sugar beet; type: in vivo, Beta vulgaris
Source text: as §1, §2

crabgrass = assay: Test B pre/postemergence crabgrass; type: in vivo, Digitaria sanguinalis
Source text: as §1, §2

wheat = assay: Test B pre/postemergence wheat; type: in vivo, Triticum aestivum
In short: as §3

purple nutsedge = assay: Test B pre/postemergence purple nutsedge; type: in vivo, Cyperus rotundus
Source text: as §1, §2

[1] = Postemergence, Rate 62 g/ha, scale of 0 to 10, 0 is no effect, 10 is complete control
[2] = Postemergence, Rate 125 g/ha, scale 0 to 10, 0 is no effect, 10 is complete control
[3] = Postemergence, Rate 250 g/ha, scale 0 to 10, 0 no effect, 10 complete control
[4] = Postemergence, Rate 500 g/ha, scale 0 to 10, 0 is no effect, 10 is complete control
[5] = Preemergence, Rate 62 g/ha, scale of 0 to 10 where 0 is no effect and 10 is complete control
[6] = Preemergence, Rate 125 g/ha, scale 0 to 10, 0 is no effect, 10 is complete control
[7] = Preemergence, Rate 250 g/ha, scale 0 to 10, 0 is no effect, 10 is complete control
[8] = Preemergence, Rate 500 g/ha, scale 0 to 10, 0 is no effect, 10 is complete control
[9] = Postemergence, Rate 250 g/ha, scale 0 to 10
[10] = Preemergence, Rate 500 g/ha, scale of 0 to 10 where 0 is no effect and 10 is complete control

CC(C)N(C(=O)n1oc(=O)n(CCc2ccccc2)c1=O)c1ccc(F)cc1F [Compound 508]
B. signalgrass plant response rating (surinam grass; [1]): 0
B. signalgrass plant response rating (surinam grass; [2]): 0
B. signalgrass plant response rating (surinam grass; [3]): 3
Plant response rating, B. signalgrass (surinam grass; [4]): 3
Plant response rating, B. signalgrass (surinam grass; [5]): 4
B. signalgrass plant response rating (surinam grass; [6]): 7
B. signalgrass plant response rating (surinam grass; [7]): 8
B. signalgrass plant response rating (surinam grass; [8]): 8
Blackgrass plant response rating (blackgrass; [1]): 0
Blackgrass plant response rating (blackgrass; [2]): 3
Blackgrass plant response rating (blackgrass; [9]): 6
Plant response rating, Blackgrass (blackgrass; [4]): 6
Plant response rating, Blackgrass (blackgrass; [5]): 1
Blackgrass plant response rating (blackgrass; [6]): 3
Blackgrass plant response rating (blackgrass; [7]): 5
Blackgrass plant response rating (blackgrass; [10]): 8
Morningglory plant response rating (morningglory; [1]): 3
Morningglory plant response rating (morningglory; [2]): 3
Plant response rating, Morningglory (morningglory; [4]): 7
Plant response rating, Morningglory (morningglory; [5]): 0
Morningglory plant response rating (morningglory; [6]): 0
Morningglory plant response rating (morningglory; [10]): 0
Rape plant response rating (rape; [1]): 1
Rape plant response rating (rape; [2]): 5
Plant response rating, Rape (rape; [4]): 8
Plant response rating, Rape (rape; [5]): 0
Rape plant response rating (rape; [6]): 0
Rape plant response rating (rape; [10]): 3
Giant foxtail plant response rating (giant foxtail; [1]): 8
Giant foxtail plant response rating (giant foxtail; [2]): 8
Plant response rating, Giant foxtail (giant foxtail; [4]): 8
Plant response rating, Giant foxtail (giant foxtail; [5]): 10
Giant foxtail plant response rating (giant foxtail; [6]): 10
Giant foxtail plant response rating (giant foxtail; [10]): 10
Plant response rating, Bedstraw (bedstraw): 0
Bedstraw plant response rating (bedstraw; Rate 125 g/ha): 0
Bedstraw plant response rating (bedstraw; Rate 250 g/ha): 0
Bedstraw plant response rating (bedstraw; Rate 500 g/ha): 0
Soybean plant response rating (soybean; [1]): 4
Soybean plant response rating (soybean; [2]): 4
Plant response rating, Soybean (soybean; [4]): 5
Plant response rating, Soybean (soybean; [5]): 0
Soybean plant response rating (soybean; [6]): 0
Soybean plant response rating (soybean; [10]): 0
Velvetleaf plant response rating (velvetleaf; [1]): 0
Velvetleaf plant response rating (velvetleaf; [2]): 1
Plant response rating, Velvetleaf (velvetleaf; [4]): 2
Plant response rating, Velvetleaf (velvetleaf; [5]): 0
Velvetleaf plant response rating (velvetleaf; [6]): 0
Velvetleaf plant response rating (velvetleaf; [10]): 0
Corn plant response rating (corn; [1]): 0
Corn plant response rating (corn; [2]): 0
Corn plant response rating (corn; [9]): 0
Plant response rating, Corn (corn; [4]): 3
Plant response rating, Corn (corn; [5]): 0
Corn plant response rating (corn; [6]): 0
Corn plant response rating (corn; [10]): 4
Redroot pigweed plant response rating (pigweed; [1]): 3
Redroot pigweed plant response rating (pigweed; [2]): 7
Plant response rating, Redroot pigweed (pigweed; [4]): 9
Plant response rating, Redroot pigweed (pigweed; [5]): 7
Redroot pigweed plant response rating (pigweed; [6]): 8
Redroot pigweed plant response rating (pigweed; [10]): 10
Cocklebur plant response rating (cocklebur; [1]): 0
Cocklebur plant response rating (cocklebur; [2]): 1
Cocklebur plant response rating (cocklebur; [9]): 4
Plant response rating, Cocklebur (cocklebur; [4]): 4
Plant response rating, Cocklebur (cocklebur; [5]): 0
Cocklebur plant response rating (cocklebur; [6]): 0
Cocklebur plant response rating (cocklebur; [7]): 0
Cocklebur plant response rating (cocklebur; [10]): 0
Wild oats plant response rating (wild oat; [1]): 0
Wild oats plant response rating (wild oat; [2]): 0
Plant response rating, Wild oats (wild oat; [4]): 4
Plant response rating, Wild oats (wild oat; [5]): 3
Wild oats plant response rating (wild oat; [6]): 4
Wild oats plant response rating (wild oat; [10]): 7
Sugarbeets plant response rating (sugar beet; [1]): 0
Sugarbeets plant response rating (sugar beet; [2]): 1
Plant response rating, Sugarbeets (sugar beet; [4]): 9
Plant response rating, Sugarbeets (sugar beet; [5]): 1
Sugarbeets plant response rating (sugar beet; [6]): 1
Sugarbeets plant response rating (sugar beet; [10]): 6
Crabgrass plant response rating (crabgrass; [1]): 9
Crabgrass plant response rating (crabgrass; [2]): 9
Crabgrass plant response rating (crabgrass; [9]): 9
Plant response rating, Crabgrass (crabgrass; [4]): 9
Plant response rating, Crabgrass (crabgrass; [5]): 6
Crabgrass plant response rating (crabgrass; [6]): 9
Crabgrass plant response rating (crabgrass; [10]): 10
Wheat plant response rating (wheat; [1]): 0
Wheat plant response rating (wheat; [2]): 0
Plant response rating, Wheat (wheat; [4]): 0
Plant response rating, Wheat (wheat; [5]): 0
Wheat plant response rating (wheat; [6]): 0
Wheat plant response rating (wheat; [10]): 2
Plant response rating, Nutsedge (purple nutsedge; [4]): 0

C=CCCCn1c(=O)on(C(=O)N(c2ccc(F)cc2F)C(C)C)c1=O [Compound 516]
B. signalgrass plant response rating (surinam grass; [1]): 0
B. signalgrass plant response rating (surinam grass; [2]): 0
B. signalgrass plant response rating (surinam grass; [3]): 3
Plant response rating, B. signalgrass (surinam grass; [4]): 5
Plant response rating, B. signalgrass (surinam grass; [5]): 1
B. signalgrass plant response rating (surinam grass; [6]): 5
B. signalgrass plant response rating (surinam grass; [7]): 9
B. signalgrass plant response rating (surinam grass; [8]): 10
Blackgrass plant response rating (blackgrass; [1]): 0
Blackgrass plant response rating (blackgrass; [2]): 4
Blackgrass plant response rating (blackgrass; [9]): 7
Plant response rating, Blackgrass (blackgrass; [4]): 7
Plant response rating, Blackgrass (blackgrass; [5]): 3
Blackgrass plant response rating (blackgrass; [6]): 5
Blackgrass plant response rating (blackgrass; [7]): 8
Blackgrass plant response rating (blackgrass; [10]): 10
Morningglory plant response rating (morningglory; [1]): 2
Morningglory plant response rating (morningglory; [2]): 3
Plant response rating, Morningglory (morningglory; [4]): 7
Plant response rating, Morningglory (morningglory; [5]): 0
Morningglory plant response rating (morningglory; [6]): 0
Morningglory plant response rating (morningglory; [10]): 0
Rape plant response rating (rape; [1]): 1
Rape plant response rating (rape; [2]): 4
Plant response rating, Rape (rape; [4]): 9
Plant response rating, Rape (rape; [5]): 0
Rape plant response rating (rape; [6]): 1
Rape plant response rating (rape; [10]): 9
Giant foxtail plant response rating (giant foxtail; [1]): 0
Giant foxtail plant response rating (giant foxtail; [2]): 5
Plant response rating, Giant foxtail (giant foxtail; [4]): 9
Plant response rating, Giant foxtail (giant foxtail; [5]): 10
Giant foxtail plant response rating (giant foxtail; [6]): 10
Giant foxtail plant response rating (giant foxtail; [10]): 10
Plant response rating, Bedstraw (bedstraw): 0
Bedstraw plant response rating (bedstraw; Rate 125 g/ha): 0
Bedstraw plant response rating (bedstraw; Rate 250 g/ha): 1
Bedstraw plant response rating (bedstraw; Rate 500 g/ha): 7
Soybean plant response rating (soybean; [1]): 4
Soybean plant response rating (soybean; [2]): 4
Plant response rating, Soybean (soybean; [4]): 7
Plant response rating, Soybean (soybean; [5]): 0
Soybean plant response rating (soybean; [6]): 0
Soybean plant response rating (soybean; [10]): 0
Velvetleaf plant response rating (velvetleaf; [1]): 3
Velvetleaf plant response rating (velvetleaf; [2]): 4
Plant response rating, Velvetleaf (velvetleaf; [4]): 4
Plant response rating, Velvetleaf (velvetleaf; [5]): 0
Velvetleaf plant response rating (velvetleaf; [10]): 7
Corn plant response rating (corn; [1]): 0
Corn plant response rating (corn; [2]): 0
Corn plant response rating (corn; [9]): 0
Plant response rating, Corn (corn; [4]): 0
Plant response rating, Corn (corn; [5]): 0
Corn plant response rating (corn; [6]): 0
Corn plant response rating (corn; [10]): 0
Redroot pigweed plant response rating (pigweed; [1]): 4
Plant response rating, Redroot pigweed (pigweed; [4]): 8
Plant response rating, Redroot pigweed (pigweed; [5]): 7
Redroot pigweed plant response rating (pigweed; [10]): 10
Cocklebur plant response rating (cocklebur; [1]): 2
Cocklebur plant response rating (cocklebur; [2]): 3
Cocklebur plant response rating (cocklebur; [9]): 3
Plant response rating, Cocklebur (cocklebur; [4]): 5
Plant response rating, Cocklebur (cocklebur; [5]): 0
Cocklebur plant response rating (cocklebur; [6]): 0
Cocklebur plant response rating (cocklebur; [7]): 0
Cocklebur plant response rating (cocklebur; [10]): 0
Wild oats plant response rating (wild oat; [1]): 0
Wild oats plant response rating (wild oat; [2]): 2
Plant response rating, Wild oats (wild oat; [4]): 5
Plant response rating, Wild oats (wild oat; [5]): 0
Wild oats plant response rating (wild oat; [6]): 5
Wild oats plant response rating (wild oat; [10]): 9
Sugarbeets plant response rating (sugar beet; [1]): 0
Sugarbeets plant response rating (sugar beet; [2]): 0
Plant response rating, Sugarbeets (sugar beet; [4]): 8
Plant response rating, Sugarbeets (sugar beet; [5]): 1
Sugarbeets plant response rating (sugar beet; [6]): 3
Sugarbeets plant response rating (sugar beet; [10]): 7
Crabgrass plant response rating (crabgrass; [1]): 3
Crabgrass plant response rating (crabgrass; [2]): 9
Plant response rating, Crabgrass (crabgrass; [4]): 9
Plant response rating, Crabgrass (crabgrass; [5]): 6
Crabgrass plant response rating (crabgrass; [6]): 9
Crabgrass plant response rating (crabgrass; [10]): 10
Wheat plant response rating (wheat; [1]): 0
Wheat plant response rating (wheat; [2]): 1
Plant response rating, Wheat (wheat; [4]): 7
Plant response rating, Wheat (wheat; [5]): 0
Wheat plant response rating (wheat; [6]): 0
Wheat plant response rating (wheat; [10]): 5
Nutsedge plant response rating (purple nutsedge; [1]): 0
Nutsedge plant response rating (purple nutsedge; [2]): 0
Plant response rating, Nutsedge (purple nutsedge; [5]): 0
Nutsedge plant response rating (purple nutsedge; [6]): 0
Nutsedge plant response rating (purple nutsedge; [10]): 0
